Laboratory results published in ChEMBL document CHEMBL5321287, “Discovery, Synthesis, and Evaluation of Novel Dual Inhibitors of a Vascular Endothelial Growth Factor Receptor and Poly(ADP-Ribose) Polymerase for BRCA Wild-Type Breast Cancer Therapy” (J Med Chem, 2023).

biological target: Vascular endothelial growth factor receptor 2 (Homo sapiens, UniProt P35968); test: Inhibition of VEGFR2 (unknown origin) by Z'-Lyte kinase assay
Sequence (P35968 whole entry): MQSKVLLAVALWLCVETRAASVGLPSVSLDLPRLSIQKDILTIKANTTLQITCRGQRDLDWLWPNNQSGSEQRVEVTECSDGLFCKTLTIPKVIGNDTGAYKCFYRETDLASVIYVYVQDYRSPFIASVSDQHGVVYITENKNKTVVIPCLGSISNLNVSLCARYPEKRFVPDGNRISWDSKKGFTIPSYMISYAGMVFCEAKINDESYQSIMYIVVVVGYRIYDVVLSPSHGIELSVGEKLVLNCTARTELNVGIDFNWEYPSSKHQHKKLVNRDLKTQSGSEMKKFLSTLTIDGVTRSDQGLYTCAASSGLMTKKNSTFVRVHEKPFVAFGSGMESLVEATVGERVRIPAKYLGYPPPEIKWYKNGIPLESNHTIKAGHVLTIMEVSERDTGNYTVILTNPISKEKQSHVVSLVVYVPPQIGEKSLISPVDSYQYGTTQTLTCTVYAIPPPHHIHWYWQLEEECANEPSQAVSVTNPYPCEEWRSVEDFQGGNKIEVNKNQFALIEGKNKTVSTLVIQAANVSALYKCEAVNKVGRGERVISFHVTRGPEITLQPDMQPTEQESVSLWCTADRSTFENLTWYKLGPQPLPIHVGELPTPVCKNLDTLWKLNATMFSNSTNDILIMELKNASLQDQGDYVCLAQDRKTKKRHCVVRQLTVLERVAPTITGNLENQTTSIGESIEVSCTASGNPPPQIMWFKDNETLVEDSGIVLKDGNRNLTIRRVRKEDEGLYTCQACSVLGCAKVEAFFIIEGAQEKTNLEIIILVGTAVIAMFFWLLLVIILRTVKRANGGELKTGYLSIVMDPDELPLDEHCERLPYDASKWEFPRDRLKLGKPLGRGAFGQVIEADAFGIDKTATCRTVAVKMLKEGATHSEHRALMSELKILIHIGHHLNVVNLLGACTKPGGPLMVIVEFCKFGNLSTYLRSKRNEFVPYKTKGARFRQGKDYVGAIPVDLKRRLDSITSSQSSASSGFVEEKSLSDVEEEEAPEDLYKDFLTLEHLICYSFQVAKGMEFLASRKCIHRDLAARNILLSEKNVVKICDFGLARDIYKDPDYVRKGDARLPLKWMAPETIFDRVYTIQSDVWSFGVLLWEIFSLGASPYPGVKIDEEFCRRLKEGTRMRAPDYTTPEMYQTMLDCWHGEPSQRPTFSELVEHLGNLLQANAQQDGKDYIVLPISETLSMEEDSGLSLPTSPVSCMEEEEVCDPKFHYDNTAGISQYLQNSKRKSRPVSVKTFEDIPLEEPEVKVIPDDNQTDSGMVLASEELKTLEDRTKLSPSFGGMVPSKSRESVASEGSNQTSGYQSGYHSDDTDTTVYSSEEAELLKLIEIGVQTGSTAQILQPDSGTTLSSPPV

SMILES | IC50 [nM]
Cc1ccc(Nc2nccc(N(C)c3ccc4c(C)n(C)nc4c3)n2)cc1-c1nc2ccccc2[nH]1 | 171
NC(=O)c1cccc2[nH]c(-c3ccc(Nc4nccc(N5CCN(C(=O)c6ccccc6)CC5)n4)cc3)nc12 | > 10000
Cc1c2ccc(N(C)c3nc(Nc4ccc(-c5nc6c(C(N)=O)cccc6[nH]5)cc4)nc4ccsc34)cc2nn1C | > 10000
COc1cc(Nc2nccc(N(C)c3ccc4c(C)n(C)nc4c3)n2)ccc1-c1nc2cc(F)c(F)cc2[nH]1 | 165
CN(c1ccc(S(C)(=O)=O)cc1)c1ccnc(Nc2ccc(-c3nc4c(C(N)=O)cccc4[nH]3)cc2)n1 | > 10000
CN(c1ccnc(Nc2ccc(-c3nc4c(C(N)=O)cccc4[nH]3)cc2)n1)c1cc(C(C)(C)C)n(C)n1 | > 10000
CN1CCN(C2CCN(c3ccnc(Nc4ccc(-c5nc6c(C(N)=O)cccc6[nH]5)cc4)n3)CC2)CC1 | > 10000
CC(C)c1ccc(N(C)c2ccnc(Nc3ccc(-c4nc5cc(F)c(F)cc5[nH]4)cc3)n2)cc1 | 501
COc1ccc(-c2nc3cc(F)c(F)cc3[nH]2)cc1Nc1nccc(N(C)c2ccc3c(C)n(C)nc3c2)n1 | 200
CN(c1ccc2ncccc2c1)c1ccnc(Nc2ccc(-c3nc4c(C(N)=O)cccc4[nH]3)cc2)n1 | 659
CS(=O)(=O)N1CCN(c2ccnc(Nc3ccc(-c4nc5c(C(N)=O)cccc5[nH]4)cc3)n2)CC1 | > 10000

Second part, the compound after the results:

IC50 [nM] | SMILES
267 | Cc1c2ccc(N(C)c3ccnc(Nc4ccc(-c5nc6c(C(N)=O)cccc6[nH]5)c(C(F)(F)F)c4)n3)cc2nn1C
169 | COc1cc(Nc2nccc(N(C)c3ccc4c(C)n(C)nc4c3)n2)ccc1-c1nc2c(C(N)=O)cccc2[nH]1
> 10000 | Cc1c2ccc(N(C)c3cc(C(F)(F)F)nc(Nc4ccc(C(=O)Nc5nc6c(C(N)=O)cccc6[nH]5)cc4)n3)cc2nn1C
> 10000 | Cc1cnc(Nc2ccc(-c3nc4c(C(N)=O)cccc4[nH]3)cc2)nc1N(C)c1ccc2c(C)n(C)nc2c1
260 | Cc1c2ccc(N(C)c3ccnc(Nc4ccc(C(=O)Nc5nc6c(C(N)=O)cccc6[nH]5)cc4)n3)cc2nn1C

biological target: Poly [ADP-ribose] polymerase 1 (Homo sapiens, UniProt P09874); test: Inhibition of PARP1 (unknown origin)
Sequence (P09874 whole entry): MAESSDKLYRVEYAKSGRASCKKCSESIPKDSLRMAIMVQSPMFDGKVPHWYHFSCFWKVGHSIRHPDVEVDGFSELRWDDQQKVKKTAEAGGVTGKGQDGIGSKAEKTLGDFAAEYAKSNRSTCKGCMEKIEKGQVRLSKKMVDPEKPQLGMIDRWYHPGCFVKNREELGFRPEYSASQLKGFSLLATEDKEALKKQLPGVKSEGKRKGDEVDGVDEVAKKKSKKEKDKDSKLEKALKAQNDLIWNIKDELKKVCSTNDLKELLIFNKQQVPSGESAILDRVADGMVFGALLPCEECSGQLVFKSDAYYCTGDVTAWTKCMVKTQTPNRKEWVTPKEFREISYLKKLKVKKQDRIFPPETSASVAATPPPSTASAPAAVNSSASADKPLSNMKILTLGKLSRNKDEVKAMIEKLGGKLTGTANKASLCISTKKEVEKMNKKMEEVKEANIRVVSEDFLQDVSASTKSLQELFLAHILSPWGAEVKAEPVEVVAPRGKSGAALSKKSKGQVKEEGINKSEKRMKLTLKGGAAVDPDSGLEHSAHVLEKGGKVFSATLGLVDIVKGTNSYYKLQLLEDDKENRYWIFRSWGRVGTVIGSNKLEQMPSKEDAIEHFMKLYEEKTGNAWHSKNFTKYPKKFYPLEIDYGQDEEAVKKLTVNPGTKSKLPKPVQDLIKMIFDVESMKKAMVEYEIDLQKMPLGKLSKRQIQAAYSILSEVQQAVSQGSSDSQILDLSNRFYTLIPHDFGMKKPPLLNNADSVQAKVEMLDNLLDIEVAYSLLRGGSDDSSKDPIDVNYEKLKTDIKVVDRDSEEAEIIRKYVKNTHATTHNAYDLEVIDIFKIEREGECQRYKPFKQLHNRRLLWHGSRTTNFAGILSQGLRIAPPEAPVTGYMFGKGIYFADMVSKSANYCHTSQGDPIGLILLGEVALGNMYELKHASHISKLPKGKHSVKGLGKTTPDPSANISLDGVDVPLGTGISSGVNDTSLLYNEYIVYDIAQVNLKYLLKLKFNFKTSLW

SMILES | IC50 [nM]
NC(=O)c1cccc2[nH]c(-c3ccc(Nc4nccc(N5CCN(C(=O)c6ccccc6)CC5)n4)cc3)nc12 | 128
NC(=O)c1cccc2[nH]c(-c3ccc(Nc4nccc(N5CCN(c6ccc(C(F)(F)F)cn6)CC5)n4)cc3)nc12 | 98.2
Cc1c2ccc(N(C)c3ccnc(Nc4ccc(-c5nc6cc(F)c(F)cc6[nH]5)c(C(F)(F)F)c4)n3)cc2nn1C | 673
NC(=O)c1cccc2[nH]c(NC(=O)c3ccc(Nc4nccc(N5CCN(C(=O)c6ccccc6)CC5)n4)cc3)nc12 | 194
Cc1ccc(Nc2nccc(N(C)c3ccc4c(C)n(C)nc4c3)n2)cc1-c1nc2cc(F)c(F)cc2[nH]1 | 682
CN(c1ccc(Cl)cc1)c1ccnc(Nc2ccc(C(=O)Nc3nc4c(C(N)=O)cccc4[nH]3)cc2)n1 | 137
Cc1c2ccc(N(C)c3ccnc(Nc4ccc(-c5nc6cc(F)c(F)cc6[nH]5)c(Cl)c4)n3)cc2nn1C | 759
CN(c1ccc(F)cc1)c1ccnc(Nc2ccc(-c3nc4c(C(N)=O)cccc4[nH]3)cc2)n1 | 130
CC(C)c1ccc(N(C)c2ccnc(Nc3ccc(-c4nc5c(C(N)=O)cccc5[nH]4)cc3)n2)cc1 | 89.7

The next lines start with the values.

IC50 [nM] | SMILES
342 | Cc1c2ccc(N(C)c3ccnc(Nc4cc(F)c(-c5nc6c(C(N)=O)cccc6[nH]5)c(F)c4)n3)cc2nn1C
166 | Cc1c2ccc(N(C)c3ccnc(Nc4ccc(C(=O)Nc5nc6c(C(N)=O)cccc6[nH]5)c(Cl)c4)n3)cc2nn1C
164 | Cc1c2ccc(N(C)c3ccnc(Nc4ccc(-c5nc6c(C(N)=O)cccc6[nH]5)c(C(F)(F)F)c4)n3)cc2nn1C
142 | Cc1c2ccc(N(C)c3ccnc(Nc4ccc(-c5nc6c(C(N)=O)cccc6[nH]5)c(Cl)c4)n3)cc2nn1C
82.7 | Cc1c2ccc(N(C)c3ccnc(Nc4cccc(-c5nc6c(C(N)=O)cccc6[nH]5)c4)n3)cc2nn1C
95.7 | Cc1c2ccc(N(C)c3ccnc(Nc4ccc(-c5nc6c(C(N)=O)cccc6[nH]5)cc4)n3)cc2nn1C
345 | Cc1c2ccc(N(C)c3ccnc(Nc4ccc(C(=O)Nc5nc6c(C(N)=O)cccc6[nH]5)c(C(F)(F)F)c4)n3)cc2nn1C

test system: MDA-MB-231; test: Antiproliferative activity against human MDA-MB-231 cells assessed as cell growth inhibition

IC50 [nM] | SMILES
> 10000 | NC(=O)c1cccc2[nH]c(-c3ccc(Nc4nccc(N5CCN(C(=O)c6ccccc6)CC5)n4)cc3)nc12

test system: MCF7; test: Antiproliferative activity against human MCF7 cells assessed as cell growth inhibition

IC50 [nM] | SMILES
> 10000 | NC(=O)c1cccc2[nH]c(-c3ccc(Nc4nccc(N5CCN(C(=O)c6ccccc6)CC5)n4)cc3)nc12
> 10000 | Cc1c2ccc(N(C)c3ccnc(Nc4ccc(-c5nc6c(C(N)=O)cccc6[nH]5)c(C(F)(F)F)c4)n3)cc2nn1C
